Results on 17 molecules are retold here after PubChem BioAssay (NCI).

What is called TGI is the concentration giving total growth inhibition. The GI50 is the concentration at which growth is held to half of that of the control.

Structures are written as SMILES. Where “and” joins values, the source holds several entries; their conditions need not be identical. Identical values can stand only once.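 Tested at 5 concentrations; 48 h exposure; 96-well plates; endpoints linearly interpolated, else capped at highest concentration. GI50: concentration for 50% inhibition of growth. TGI: concentration producing complete growth inhibition.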

Test systems include CAKI-1 renal; CCRF-CEM leukemia; COLO 205 colon; IGROV1 ovarian; LOX IMVI melanoma; MDA-MB-435; NCI-H460 lung; OVCAR-3 ovarian; RXF 393 renal; SK-MEL-2 melanoma; SK-MEL-28 melanoma; UACC-62 melanoma.
Assay in all cases: DTP human tumour cell line panel, 48 h

`OC1CC(O)c2c(Cl)sc(Cl)c21` (centres undefined): the TGI in the experiment on CAKI-1 renal was over 100 µM; in the experiment on CCRF-CEM leukemia it was over 100 µM; with COLO 205 colon, 33.4 µM; in the experiment on IGROV1 ovarian, over 100 µM; in the experiment with LOX IMVI melanoma, over 100 µM; with MDA-MB-435, over 100 µM. The concentration for total growth inhibition (TGI) in the experiment with NCI-H460 lung is 65.2 µM; with OVCAR-3 ovarian, 70.8 µM; in the experiment on RXF 393 renal, 11.5 µM; with SK-MEL-2 melanoma it was 49.4 µM; in the experiment with SK-MEL-28 melanoma it was over 100 µM; in the experiment with UACC-62 melanoma it was over 100 µM.

As for `S=C(Nc1cccc(Cl)c1)Nc1ccccn1`, the TGI in the experiment on CAKI-1 renal, in the experiment on CCRF-CEM leukemia, in the experiment on COLO 205 colon, in the experiment on IGROV1 ovarian, with LOX IMVI melanoma and in the experiment with MDA-MB-435 was over 100 µM in each case. In addition, the TGI with NCI-H460 lung, in the experiment with OVCAR-3 ovarian, with RXF 393 renal, with SK-MEL-2 melanoma, with SK-MEL-28 melanoma and in the experiment on UACC-62 melanoma was over 100 µM each time.

Consider `COC1OC(CO)C(O)C(OC(=O)c2cc(O)c(O)c(O)c2)C1OC(=O)c1cc(O)c(O)c(O)c1` (centres undefined), for which the TGI in the experiment on CAKI-1 renal is over 100 µM; in the experiment on CCRF-CEM leukemia, over 100 µM; in the experiment with COLO 205 colon, over 100 µM; with IGROV1 ovarian, over 100 µM; in the experiment on LOX IMVI melanoma it was 68.2 µM; in the experiment with MDA-MB-435, over 100 µM. Also, the concentration for total growth inhibition (TGI) in the experiment with NCI-H460 lung, in the experiment on OVCAR-3 ovarian, in the experiment on RXF 393 renal, in the experiment on SK-MEL-2 melanoma and with SK-MEL-28 melanoma was over 100 µM throughout.

For the molecule `O=[N+]([O-])c1cccc2nccc(NCC(O)CO)c12` (centres undefined), the TGI in the experiment on CAKI-1 renal is 35.8 µM; in the experiment with CCRF-CEM leukemia, over 89.9 µM; in the experiment with COLO 205 colon, 33.5 µM; in the experiment with IGROV1 ovarian, 38.9 µM; in the experiment on LOX IMVI melanoma it was 54.7 µM; in the experiment on MDA-MB-435, 37.8 µM. The total growth inhibition concentration (TGI) in the experiment on NCI-H460 lung is 26.3 µM; in the experiment on OVCAR-3 ovarian, 33.7 µM; in the experiment with RXF 393 renal, 26.4 µM; with SK-MEL-2 melanoma, 26 µM; in the experiment on SK-MEL-28 melanoma, 34 µM; in the experiment with UACC-62 melanoma it was 31.5 µM.

As to `CCCNC(=S)/N=C\c1c(O)c2ccccc2oc1=O`, the concentration for total growth inhibition (TGI) in the experiment with CAKI-1 renal, with CCRF-CEM leukemia, with COLO 205 colon, in the experiment on IGROV1 ovarian, with LOX IMVI melanoma and in the experiment on MDA-MB-435 was over 100 µM in each case. The total growth inhibition concentration (TGI) with NCI-H460 lung, with OVCAR-3 ovarian, in the experiment on RXF 393 renal, in the experiment with SK-MEL-2 melanoma, in the experiment with SK-MEL-28 melanoma and in the experiment on UACC-62 melanoma was over 100 µM each time.

In the case of `C=C1C(=O)C23CC1C[C@H](OC(C)=O)C2C1(C)C(OC(C)=O)C[C@H](O)C(C)(C)[C@H]1C(O)[C@@H]3OC(C)=O` (some centres undefined), the TGI in the experiment on CAKI-1 renal turned out to be 30.7 µM; with CCRF-CEM leukemia, 8.25 µM; with COLO 205 colon, 14.5 µM; with IGROV1 ovarian it was 30.6 µM; with LOX IMVI melanoma it was 30.3 µM; in the experiment with MDA-MB-435, 20.6 µM. Besides, the TGI in the experiment on NCI-H460 lung was over 60 µM; with OVCAR-3 ovarian it was 19.1 µM; in the experiment with RXF 393 renal, 19.9 µM; in the experiment with SK-MEL-2 melanoma, 29.7 µM; in the experiment with SK-MEL-28 melanoma it was 24.4 µM; in the experiment with UACC-62 melanoma, 26.5 µM.

With `CC1N(C)C(=O)OC12CCN(CCCC(=O)c1ccc(F)cc1)CC2` (centres undefined), the total growth inhibition concentration (TGI) in the experiment on CAKI-1 renal, in the experiment with CCRF-CEM leukemia, in the experiment on COLO 205 colon, with IGROV1 ovarian, with LOX IMVI melanoma and with MDA-MB-435 was over 100 µM throughout. In addition, the TGI in the experiment with NCI-H460 lung, with OVCAR-3 ovarian, with RXF 393 renal, in the experiment with SK-MEL-2 melanoma, in the experiment with SK-MEL-28 melanoma and in the experiment on UACC-62 melanoma was over 100 µM in each case.

Take `O=C1CCC2SC1CCC2=O`: the TGI in the experiment on CAKI-1 renal, with CCRF-CEM leukemia, in the experiment with COLO 205 colon, in the experiment with IGROV1 ovarian, with LOX IMVI melanoma and with MDA-MB-435 was over 100 µM throughout. Also, the TGI with NCI-H460 lung, in the experiment with OVCAR-3 ovarian, with RXF 393 renal, in the experiment with SK-MEL-2 melanoma and in the experiment with SK-MEL-28 melanoma was over 100 µM each time.

For the molecule `COC(=O)C1(O)c2ccccc2N=C2C(=O)c3ccccc3N21` (centres undefined), the TGI in the experiment with CAKI-1 renal was over 100 µM; in the experiment on CCRF-CEM leukemia, over 100 µM; in the experiment with COLO 205 colon it was over 100 µM; in the experiment on IGROV1 ovarian, over 100 µM; in the experiment on LOX IMVI melanoma, over 100 µM; in the experiment on MDA-MB-435, 26.3 µM. Moreover, the TGI with NCI-H460 lung, in the experiment on OVCAR-3 ovarian, with RXF 393 renal, in the experiment on SK-MEL-2 melanoma and with SK-MEL-28 melanoma was over 100 µM in each case.

With `CC(=O)Nc1ccc2c(C)c3c4ccccc4n(C)c3nc2n1`, the TGI is over 100 µM with CAKI-1 renal; 80.5 µM with CCRF-CEM leukemia; 30.9 µM in the experiment on COLO 205 colon; over 100 µM with IGROV1 ovarian; 34.2 µM in the experiment on LOX IMVI melanoma; 45.7 µM in the experiment on MDA-MB-435. In addition, the concentration for total growth inhibition (TGI) amounted to 15.5 µM in the experiment with NCI-H460 lung; 70.1 µM in the experiment on OVCAR-3 ovarian; 34.6 µM in the experiment on RXF 393 renal; 47.6 µM with SK-MEL-2 melanoma; 69 µM in the experiment on UACC-62 melanoma.

Turning to `CC1OC(O[C@H]2CC[C@]3(C)[C@H]4CC=C5[C@@H]6[C@@H](C)[C@H](C)CC[C@]6(C(=O)O)CC[C@@]5(C(=O)O)[C@]4(C)CC[C@H]3C2(C)C)C(O)C(O)C1O` (some centres undefined), the TGI in the experiment with CAKI-1 renal, with CCRF-CEM leukemia, in the experiment on COLO 205 colon, in the experiment on LOX IMVI melanoma, in the experiment on MDA-MB-435 and with NCI-H460 lung was over 75 µM throughout. Moreover, the TGI in the experiment on OVCAR-3 ovarian, in the experiment with RXF 393 renal, with SK-MEL-2 melanoma and with UACC-62 melanoma was over 75 µM each time.

For `CCC(=O)COc1ccc(NC(NC(=O)C(C(F)(F)F)C(F)(F)F)(C(F)(F)F)C(F)(F)F)cc1`, the TGI was 94.1 µM with CAKI-1 renal; 61.8 µM in the experiment on CCRF-CEM leukemia; 43.7 µM with COLO 205 colon; 44.9 µM with IGROV1 ovarian; 74.1 µM with LOX IMVI melanoma; over 100 µM in the experiment with MDA-MB-435. In addition, the TGI in the experiment on NCI-H460 lung is over 100 µM; with OVCAR-3 ovarian, over 100 µM; in the experiment on RXF 393 renal, 48.7 µM; in the experiment on SK-MEL-2 melanoma, 95.5 µM; in the experiment with SK-MEL-28 melanoma, over 100 µM.

Take `CC(=O)OC1COC(n2c(N)c(C#N)c(C)c(C#N)c2=S)C(OC(C)=O)C1OC(C)=O` (centres undefined): the total growth inhibition concentration (TGI) in the experiment with CAKI-1 renal, with CCRF-CEM leukemia, in the experiment with IGROV1 ovarian, in the experiment on LOX IMVI melanoma, in the experiment on MDA-MB-435 and in the experiment on NCI-H460 lung was over 100 µM in each case. Also, the total growth inhibition concentration (TGI) in the experiment with OVCAR-3 ovarian, in the experiment with RXF 393 renal, with SK-MEL-2 melanoma, with SK-MEL-28 melanoma and with UACC-62 melanoma was over 100 µM throughout. For the same molecule, the GI50 in the experiment on CCRF-CEM leukemia was > 100 µM and 32 µM; in the experiment with RXF 393 renal, 17.4 µM and 59.8 µM; in the experiment on SK-MEL-2 melanoma it was > 100 µM and 26 µM.

On to `O=C1/C(=C\c2cccc(Oc3ccccc3)c2)SC(c2ccccc2)N1c1ccc(Cl)cc1` (centres undefined), for which the TGI with CAKI-1 renal is over 100 µM; in the experiment on CCRF-CEM leukemia, over 63.6 µM; with COLO 205 colon it was over 80.9 µM; in the experiment on LOX IMVI melanoma it was over 100 µM; with MDA-MB-435, over 64.3 µM; in the experiment on NCI-H460 lung it was over 100 µM. Moreover, the concentration for total growth inhibition (TGI) in the experiment on OVCAR-3 ovarian, in the experiment on RXF 393 renal, with SK-MEL-2 melanoma, in the experiment with SK-MEL-28 melanoma and in the experiment with UACC-62 melanoma was over 100 µM each time.

In the case of `CC(C)/C=N\n1c(N)c(C#N)c(C#N)c1C(C)C`, the TGI with CAKI-1 renal is over 100 µM; with CCRF-CEM leukemia it was over 100 µM; in the experiment on COLO 205 colon it was 45.7 µM; in the experiment on IGROV1 ovarian, 77.8 µM; in the experiment on LOX IMVI melanoma, 97.8 µM; with MDA-MB-435, 95.1 µM. For the same molecule, the TGI in the experiment with OVCAR-3 ovarian was 62.1 µM; with RXF 393 renal, over 100 µM; with SK-MEL-2 melanoma, 58 µM; in the experiment with UACC-62 melanoma, 34.7 µM.

Regarding `CSc1cc(Cl)c(C)cc1S(=O)(=O)NC(=O)NNc1ccc(F)c(Cl)c1`, the TGI in the experiment with CAKI-1 renal, in the experiment on CCRF-CEM leukemia, in the experiment with COLO 205 colon, with IGROV1 ovarian, in the experiment with LOX IMVI melanoma and in the experiment with MDA-MB-435 was over 100 µM each time. Moreover, the total growth inhibition concentration (TGI) with NCI-H460 lung, in the experiment with OVCAR-3 ovarian, with RXF 393 renal, with SK-MEL-2 melanoma and in the experiment on SK-MEL-28 melanoma was over 100 µM throughout.

As to `Cc1ccc(S(=O)(=O)N2CCCCN(S(=O)(=O)c3ccc(C)cc3)Cc3ccccc3OCCOCCOc3c4cccc3Cc3cccc5c3OCCOCCOc3ccccc3CN(S(=O)(=O)c3ccc(C)cc3)CCCN(S(=O)(=O)c3ccc(C)cc3)Cc3ccccc3OCCOCCOc3c(cccc3C4)Cc3cccc(c3OCCOCCOc3ccccc3C2)C5)cc1`, the concentration for total growth inhibition (TGI) in the experiment on CAKI-1 renal, in the experiment on CCRF-CEM leukemia, in the experiment on COLO 205 colon, in the experiment with IGROV1 ovarian, with LOX IMVI melanoma and with MDA-MB-435 was over 100 µM in each case. Further, the TGI in the experiment on NCI-H460 lung, in the experiment on OVCAR-3 ovarian, in the experiment with RXF 393 renal, in the experiment with SK-MEL-2 melanoma and with UACC-62 melanoma was over 100 µM in each case.
